The subject of the data set is elk sperm. Briefly: Post thaw DNA fragmentation of elk sperm (Example 3). The class given is cell-based. Here is the method: Each of deer and elk were collected in the Tris-egg yolk catch fluid described as a catch media in Example 1, and shipped for sorting.
A portion of each of the deer and the elk were stained by the red food dye No. 40 treatment 40% with 16 μL Hoechst 33342 and the yellow food dye No. 6 treatment with 14 μL Hoechst 33342 as described in Example 1.
Samples were each bulk sorted with the same machine and parameters described in Example 1. Both sorted X and sorted Y sperm were collected into a single catch. The sorted samples were then frozen like those described in Example 1.
Frozen thawed samples were then tested for post thaw motilities and post thaw DNA fragmentation. Post thaw motilities were slightly higher in Elk sorted with a yellow quencher, while a more significant difference existed in progressive motility. In Table 10, post thaw DNA fragmentation in Elk can be seen at about double after 48 hours when red food dye No. 40 is compared to yellow food dye No. 6 as a dead quencher.

Structures are written as SMILES.

Consider `O=S(=O)([O-])c1ccc(N=Nc2c(O)ccc3cc(S(=O)(=O)[O-])ccc23)cc1.[Na+].[Na+]` [Yellow 6, Disodium 6-hydroxy-5-[(4-sulfophenyl)azo]-2-naphthalenesulfononate], for which the Post Thaw DNA fragmentation Elk, Post Sort (0 HR, unit assumed) was 0%; the Post Thaw DNA fragmentation Elk, Post Sort (24 HR, unit assumed) was 0%; the Post Thaw DNA fragmentation Elk, Post Sort (48 HR, unit assumed) came to 0.3%. For the same compound, the Post Thaw DNA fragmentation Elk, Pre-sort is, setting by setting: (0 HR, unit assumed) 2.3%; (24 HR, unit assumed) 3.3%; (48 HR, unit assumed) 3.7%.
As to `COc1cc(S(=O)(=O)O)c(C)cc1N=Nc1c(O)ccc2cc(S(=O)(=O)O)ccc12` [Red 40, 6-hydroxy-5-[(2-methoxy-5-methyl-4-sulfophenyl)azo]-2-naphthalenesulfonic acid, reference compound], the Post Thaw DNA fragmentation Elk, Post Sort is, setting by setting: (elk, 0 h) 0%; (elk, 24 h) 0.3%; (elk, 48 h) 0.7%. In addition, the Post Thaw DNA fragmentation Elk, Pre-sort was 2.3% (elk, 0 h); 5.6% (elk, 24 h); 6% (elk, 48 h).

(Values after patent US9140688B2, “Sperm staining and sorting methods” (INGURAN, LLC, priority 2011, dated 2015).)
